Results published in ChEMBL document CHEMBL5137030 (Eur J Med Chem, 2022).
pEC50: −log10 of the molar value. The source made the active and inactive calls. The calls are words filed in the database; no cut-off is given here.

Tests used:
Human alphaherpesvirus 2 [1] = test: Antiviral activity against HSV-2 infected in African green monkey Vero cells assessed as inhibition of viral replication by measuring log suppression of virus-induced cytopathic effect at 5 uM incubated for 1 hr followed by washing with PBS and subsequent treatment with compound for 24 hrs by plaque assay; assay type: functional; conditions: time 25 hrs
Human alphaherpesvirus 2 [2] = test: Antiviral activity against HSV-2 333vhsB infected in African green monkey Vero cells assessed as inhibition of viral replication by measuring reduction in virus-induced cytopathic effect at 50 uM incubated for 20 hrs by colorimetric analysis; assay type: functional, organism-based
Human alphaherpesvirus 2 [3] = test: Antiviral activity against HSV-2 infected in African green monkey Vero cells assessed as inhibition of viral replication by measuring log suppression of virus-induced cytopathic effect at 1 uM incubated for 1 hr followed by washing with PBS and subsequent treatment with compound for 24 hrs by plaque assay; assay type: functional; conditions: time 25 hrs
[4] = Half life in human liver microsomes at 2 uM in presence of NADPH by LC/MS/MS analysis; assay type: ADME, Microsome
Human alphaherpesvirus 1 [5] = test: Antiviral activity against HSV-1 infected in African green monkey Vero cells assessed as inhibition of viral replication by measuring log suppression of virus-induced cytopathic effect at 1 uM incubated for 1 hr followed by washing with PBS and subsequent treatment with compound for 24 hrs by plaque assay; assay type: functional; conditions: time 25 hrs
Human alphaherpesvirus 2 [6] = test: Antiviral activity against HSV-2 infected in African green monkey Vero cells assessed as inhibition of viral replication incubated for 1 hr followed by washing with PBS and subsequent treatment with compound for 24 hrs by plaque reduction assay; assay type: functional, organism-based; conditions: Human alphaherpesvirus 2, Vero
[7] = Apparent permeability of the compound across apical to basolateral side in human Caco-2 cells at 10 uM incubated for 2 hrs; assay type: ADME, cell-based; conditions: caco-2, 2 h
Human alphaherpesvirus 1 [8] = test: Antiviral activity against HSV-1 infected in African green monkey Vero cells assessed as inhibition of viral replication by measuring log suppression of virus-induced cytopathic effect at 5 uM incubated for 1 hr followed by washing with PBS and subsequent treatment with compound for 24 hrs by plaque assay; assay type: functional; conditions: time 25 hrs
[9] = Half life in mouse liver microsomes at 2 uM in presence of NADPH by LC/MS/MS analysis; assay type: ADME, Microsome
[10] = Cytotoxicity against human HepDES19 cells assessed as reduction in cell viability incubated for 72 hrs by MTS assay; assay type: toxicity, cell-based; conditions: hepdes19, 72 h
Human alphaherpesvirus 1 [11] = test: Antiviral activity against HSV-1 infected in African green monkey Vero cells assessed as inhibition of viral replication incubated for 1 hr followed by washing with PBS and subsequent treatment with compound for 24 hrs by plaque reduction assay; assay type: functional, organism-based; conditions: Human alphaherpesvirus 1, Vero

SMILES | log(activity) (Human alphaherpesvirus 2 [1]) | Activity (Human alphaherpesvirus 2 [2]) | log(activity) (Human alphaherpesvirus 2 [3]) | t1/2 [4] | log(activity) (Human alphaherpesvirus 1 [5]) | pEC50 (Human alphaherpesvirus 2 [6]) | Papp [7] | log(activity) (Human alphaherpesvirus 1 [8]) | t1/2 [9] | CC50 [10] | pEC50 (Human alphaherpesvirus 1 [11])
Cc1cc(C2CCCC2)n(O)c(=O)c1 | 2.38 | Active | 0.37 | – | – | – | – | – | – | – | –
O=c1cccc(Cc2ccccc2)n1O | 2.75 | Active | 0.34 | – | – | – | – | – | – | – | –
Cc1cc(C2CCCCCC2)n(O)c(=O)c1 | 5.09 | Active | 4.15 | < 5 min | 4.67 | 6.80 | 5.74 10^-6 cm/s | 5.27 | 8 min | 18 µM | 7.22
O=c1ccc(C2CCCCC2)cn1O | 3.62 | Active | 0.67 | – | – | – | – | – | – | – | –
O=c1ccc(-c2ccccc2)cn1O [1-HYDROXY-5-PHENYLPYRIDIN-2(1H)-ONE] | 0 | Active | -0.03 | – | – | – | – | – | – | – | –
COc1ccccc1Cc1cc(C)cc(=O)n1O | 3.9 | Active | 1.02 | – | – | – | – | – | – | – | –
Cc1cc(Cc2ccc(OCc3ccccc3)cc2)n(O)c(=O)c1 | 4.25 | Active | 4.1 | – | 4.74 | 6.89 | 9.42 10^-7 cm/s | 5.18 | – | 19 µM | –
Cc1ccccc1-c1cc(CC2CCCCC2)n(O)c(=O)c1 | 5.65 | Active | 0.14 | – | – | – | – | – | – | – | –
Cc1cc(Cc2cccc(OCc3ccccc3)c2)n(O)c(=O)c1 | 4.4 | Active | 4.04 | < 5 min | – | 6.66 | 1.37 10^-6 cm/s | – | < 5 min | 22 µM | –
Cc1cc(Cc2cccc(Cl)c2)n(O)c(=O)c1 | 4 | Active | 1.82 | – | – | – | – | – | – | – | –
COc1ccc(Cc2cc(C)cc(=O)n2O)cc1 | 4.04 | Active | 1.23 | – | – | – | – | – | – | – | –
Cc1cc(Cc2ccccc2-c2ccccc2)n(O)c(=O)c1 | 4.49 | Active | 3.17 | < 5 min | – | 6.80 | 2.03 10^-7 cm/s | – | < 5 min | 14 µM | –
Cc1cccc(-c2cc(CC3CCCCC3)n(O)c(=O)c2)c1 | 3.95 | Active | 3.26 | – | 4.22 | 6.51 | – | 4.59 | – | 16 µM | –
O=c1cc(Cc2ccccc2)cc(CC2CCCCC2)n1O | 4.83 | Active | 2.39 | – | – | – | – | – | – | – | –
O=c1cc(/C=C/c2ccccc2)cc(Cc2ccccc2)n1O | 4.62 | Active | 1.46 | – | – | – | – | – | – | – | –
O=c1cc(-c2ccccc2)cc(CC2CCCCC2)n1O | 5.29 | Active | 4.84 | < 5 min | – | 6.41 | 2.75 10^-6 cm/s | – | < 5 min | 20 µM | –
O=c1cc(Cc2ccccc2)ccn1O | 0.03 | Active | 0.4 | – | – | – | – | – | – | – | –
O=c1cc(-c2ccccc2)cc(Cc2ccccc2)n1O | 5.29 | Active | 2.72 | – | – | 6.39 | – | – | – | 18 µM | –
Cc1cc(C2CCC2)n(O)c(=O)c1 | 1.45 | Active | 0.26 | – | – | – | – | – | – | – | –

SMILES | log(activity) (Human alphaherpesvirus 2 [1]) | Activity (Human alphaherpesvirus 2 [2]) | log(activity) (Human alphaherpesvirus 2 [3]) | t1/2 [4] | log(activity) (Human alphaherpesvirus 1 [5]) | pEC50 (Human alphaherpesvirus 2 [6]) | Papp [7] | log(activity) (Human alphaherpesvirus 1 [8]) | t1/2 [9] | CC50 [10] | pEC50 (Human alphaherpesvirus 1 [11])
O=c1cc(Cc2ccccc2)cc(Cc2ccccc2)n1O | 4.7 | Active | 0.29 | – | – | – | – | – | – | – | –
O=c1cccc(C2CCCCC2)n1O | 5.01 | Active | 1.23 | – | – | 6.26 | – | – | – | 22 µM | –
O=c1cc(/C=C/c2ccccc2)cc(CC2CCCCC2)n1O | 4.77 | Active | 4.95 | – | 4.33 | 6.57 | – | 4.42 | – | 20 µM | –
O=c1c2ccccc2cc(Cc2ccccc2)n1O | 4.03 | Active | 0.73 | – | – | – | – | – | – | – | –
O=c1cc(-c2ccccc2)ccn1O | 0.02 | Active | 0.05 | – | – | – | – | – | – | – | –
Cc1cc(C2CCN(C(=O)C(C)C)CC2)n(O)c(=O)c1 | 0.4 | Active | -0.08 | – | – | – | – | – | – | – | –
O=c1c2ccccc2cc(C2CCCCC2)n1O | 4.48 | Active | 1.01 | – | – | – | – | – | – | – | –
Nc1nc2c(ncn2COCCO)c(=O)[nH]1 [ACYCLOVIR] | 2.9 | – | 1.79 | – | 2.42 | – | – | 3.36 | – | – | –
Cc1cc2ccccc2c(=O)n1O | 0.28 | Active | 0.01 | – | – | – | – | – | – | – | –
Cc1cc(Cc2ccccc2Cl)n(O)c(=O)c1 | 4.3 | Active | 2.46 | – | – | – | – | – | – | – | –
O=c1c2ccccc2cc(CC2CCCCC2)n1O | 4.77 | Active | 2.68 | – | 4.16 | 6.55 | – | 4.32 | – | 49 µM | 6.62
O=c1cc(C2CCCCC2)ccn1O | 0.04 | Active | 0.2 | – | – | – | – | – | – | – | –
O=c1c2ccccc2cc(-c2ccccc2)n1O | 4.04 | Active | 0.01 | – | – | – | – | – | – | – | –
Cc1cc(Cc2ccc3ccccc3c2)n(O)c(=O)c1 | 3.63 | Active | 1.34 | – | – | – | – | – | – | – | –
Cc1ccc(-c2cc(CC3CCCCC3)n(O)c(=O)c2)cc1 | 0.34 | Active | 0.02 | – | – | – | – | – | – | – | –
Cc1cc(C2CCOCC2)n(O)c(=O)c1 | 0.09 | Active | -0.23 | – | – | – | – | – | – | – | –
O=c1ccc(Cc2ccccc2)cn1O | -0.03 | Active | 0.1 | – | – | – | – | – | – | – | –
Cc1cc(Cc2cccc(-c3ccccc3)c2)n(O)c(=O)c1 | 4.2 | Active | 4.22 | < 5 min | – | 6.41 | 1.09 10^-6 cm/s | – | < 5 min | 24 µM | –
